According to patent US7687079B2, “Methods of treating ileus” (priority 2002, dated 2010):

Key:
IL-6 protein = IL-6 protein release from isolated muscularis (ELISA); type: in vivo, mouse
Description: Protein and Nitric Oxide Determinations. The small bowel of control and mice subjected to intestinal manipulation was removed under sterile conditions, 4 or 24 hours post-operatively, leaving the colon in situ. The small intestine was transferred to a beaker containing chilled Hanks balanced salt solution (Sigma, St. Louis, Mo.) with 200 U/ml penicillin G and 200 μg/ml streptomycin (HBSS), the lumen flushed, and the tissue transferred to a second beaker of HBSS. The muscularis was harvested as described above for real time RT-PCR. Tissues were maintained under sterile conditions at 3 to 5° C. throughout the harvesting procedure. Isolated muscularis was blotted onto sterile gauze, and the wet weight determined to obtain aliquots of 40 to 60 mg. […]
After the incubation period, the muscle tissue was pelleted, and aliquots of culture medium were frozen in liquid nitrogen and stored at −80° C. The levels of IL-6, IL-1β, PGE2, and IL-10 proteins secreted into the culture medium were determined using commercially available ELISA kits (R&D Systems, Minneapolis, Minn.) according to the manufacturer's instructions. […] Nitrate/nitrate levels were measured 24 hrs postoperatively using commercially available test kit (Oxford Biomedical Research, Oxford, Mich.) and quantified according to the manufacturer's directions. […]

circular muscle strip = assay: Example 3 circular muscle strip contractions in response to bethanechol after IM; type: in vivo, mouse; conditions: IM+CO mice (250 and 500 ppm), bethanechol 100 μM, 24 hours
Description: Ileus was induced in mice by gentle manipulation of the small intestine. An incision was made to expose the abdominal cavity of the mouse, and bowel manipulation was performed by gentle poking and prodding of the small intestine (see, e.g., Schwarz et al., Gastroenterology 121(6):1354-1357 (2001)). The incision was subsequently closed, and analyses were performed 24 hours later. Mice were exposed to CO by inhalation (250 and 500 ppm) for 1 hour immediately prior to intestinal manipulation and during the entire 24-hour recovery period. Intestinal contractility was assessed in vitro by measuring circular muscle strip contractions in response to bethanechol (0.3-300 μM) and in vivo by determining intestinal transit from the distribution of orally-fed, fluorescein-labeled dextran and calculating geometric center as described in Example 1 above. HO-1 and IL-10 mRNA expression were determined by SYBR green real time RT-PCR from extracts of muscularis extemae, as described in Example 1 above. Release of nitric oxide (NO), a potent inhibitor of smooth muscle contractility, was estimated by measuring serum total nitrite, also described in Example 1 above.

[1] = test system: IL-6, IL-1β, TNFα, ICAM-1, COX-2, iNOS, IL-10 mRNA; assay: real time RT-PCR of inflammatory mediators, CO alone without surgery; type: in vivo, rat; conditions: inhalation of CO alone (no surgery)
Description: The effects of inhalation of CO on transplant-induced pro-inflammatory and anti-inflammatory gene expression was assessed in muscularis extracts by RT-PCR. Muscularis extemae was collected from normal intestine and transplanted grafts 4 hours postoperatively and snap frozen in liquid nitrogen. This time point falls within the range of maximum inflammatory mediator expression that occurs between 3 and 6 hours following abdominal incision. Total RNA extraction was performed using the guanidium-thiocyanate phenol-chloroform extraction method as described previously (Eskandari et al., Am. J. Clin. Pathol. 75(3):367-370 (1997)). RNA pellets were resuspended in RNA-secure resuspension solution (Ambion Inc., Austin, Tex.), followed by removal of potentially contaminating DNA by treatment with DNase I (DNA-Free Kit, Ambion Inc., Austin, Tex.). Equal aliquots (5 μg) of total RNA from each sample were quantified by spectrophotometry (wavelength […]) and aliquoted at a concentration of 40 ng/μl. Peak mRNA expression was quantified in duplicate by SYBR Green two-step, real-time RT-PCR. […] Real-time PCR data were plotted as the ΔRn, fluorescence signal versus the cycle number. […] Quantification of mRNA expression was normalized to GAPDH and calculated relative to control using the comparative CT method (Schmittgen et al., J. Biochem. Biophys. Methods 46(1-2):69-8 (2000)). […]

[C-]#[O+] [CO, carbon monoxide] was tested, and the IL-6 protein release (IL-6 protein; IM + CO vs IM, 24 hr after surgery) was “significantly attenuated”, the IL-6 protein release (IL-6 protein; IM mice treated with CO, 24 hr postoperatively) was 2000 pg/mL and the peak contractile force (circular muscle strip) was 1.9±0.5 g/s/mm^2. For the same compound, the “expression of any of the mediators studied” value [1] was “no effect”.
